Like-named read-outs stand apart in the source and are kept apart here.
Legend:
[1] = test system: bovine aortic endothelial cells (ECs); settings: 3 ng/ml, over 3 days following administration; cited from earlier work
[2] = test system: bovine aortic endothelial cells (ECs); assay: EC QCM biosensor: Δf and ΔR shifts of attached endothelial cells after drug addition; format: cell-based; settings: for EC50: Bos taurus, Endothelial cell
Excerpt: The details of how these measurements were made have been presented previously. Basically, an AT cut quartz crystal of resonant frequency 8.85 MHz with gold electrode (5 mm diameter)was used in a cylindrical Teflon cell (Seiko EG&G). The crystal was sandwiched between two silicone O-rings to allow only one side of the electrode to be exposed to the media and serum containing solution (FIG. 1B). The QCM device was placed within a large petri dish, filled with distilled water, at a level well […] the water surface. This water reservoir allowed humidity to be maintained, preventing evaporation from the QCM cell. The QCM was covered with a petri dish cover plate following placement inside a 37° C. temperature regulated cell incubator. A Model QCA 917 Quartz Crystal Analyzer System (Seiko EG&G), comprised of a Main Unit and Oscillator, was used for the simultaneous measurement of the resonant frequency (f) and resonance admittance (A). Before assembly in the well holder, the gold QCM surface was treated chemically to render it hydrophilic. A drop of 1:3 H2O2 (30%): H2SO4 at 80° C. was placed upon and covered the gold surface for 5 minutes, followed by rinsing with distilled water and drying under N2. This procedure was repeated three times. After sterilization and washing with water and PBS, 52 μl of media and 10% Calf Serum (CS) was added onto the QCM electrode and the entire holder was put into a humidified CO2 incubator controlled at 10% CO2. The f and admittance (A) values were automatically monitored at 1 minute intervals using a PC and WinWedge 32, version 3.0 Software (TAL Technologies®) and the stable values at 2 hour were taken as reference values before the addition of cells. After 2 hours, 250 μl media +10% CS containing a specific number of cells was added evenly to the medium surface. Then f and A values were automatically monitored during the process of EC sedimentation to the crystal surface, and during their impact and spreading over a 20 hr period to achieve steady state attachment. In the data reduction phase, values of A, in μS were converted into motional resistance, R, in units of Ω, using the relationship R=10^6/A. Nocodazole achieved its final concentration by being added in a pre-warned 50 μl volume of media and serum, following removal of 50 μl from the top of the EC QCM biosensor well holder. Following the conclusion of each experiment, trypsinable ECs adhering to the gold QCM surface were determined as described below. Bovine aortic endothelial cells (BAEs) were obtained from Clonetics, Inc., and were maintained as stock cultures in DMEM-10% CS, as previously described. BAEs were not used beyond passage 22. For experimental treatments, ECs were trypsinized, washed with PBS, and precise counts of the number of cells were made using an electronic cell counter made by Coulter, Inc., following resuspension in full media (250 μl). At the end of a QCM experiment, cells firmly attached were determined via trypsinization assay and an electronic counter. This protocol involved the following steps. Media was collected from the QCM (M). The QCM was gently washed with 100 μl PBS (W). After 125 μl trypsin (0.05% w/v trypsin, 0.53 mM EDTA, in Hank's Buffered salt solution) was added and incubated for 6 min. at 37° C., this fraction was collected (T1). Following a second trypsinization wash, identical to the first, this fraction was collected (T2). Aliquots from all of the four steps (M, W, T1, T2) were electronically counted using Coulter counting. After trypsinization, the QCM electrode was washed successively with PBS, water, ethanol, then detached from the well holder. It was then cleaned sequentially with a number of reagents to remove all residual ECM and cell debris, as we have previously described. Cleaned in this way, the QCM was used repeatedly with good reproducibility of its initial f and R values, due to complete protein removal from the QCM surface.

[3] = test system: bovine aortic endothelial cells (ECs); assay: Fluorescence light microscopy of actin-stained ECs in multichamber LabTek slides (QCM simulation); format: cell-based; settings: for EC shape and morphology (actin stain): 4 hr treatment
Method: To acquire detailed information about the change in cell shape and attachment while ECs were exposed to varying nocodazole concentrations, we performed a simulation experiment. 76,400 ECs were plated into multichamber LabTek slides and were allowed to attach for 24 hrs in normal growth media. This number of cells simulates the cell surface density in the QCM device. 50 μL of media was then removed and replaced with 50 μL of media with or without concentrated nocodazole. In duplicate, cells either received no nocodazole (control) or final concentrations of 0.33, 1, 2, 6 or 15 μM nocodazole. After four hours, the cells were fixed and stained to reveal the actin microfilament arrangement within the cells, as described below. These studies were performed to detect the shape and attachment changes in ECs that would roughly correspond to a time when the QCM detected maximal shifts in f and R values. […] For actin localization in the multichamber wells or in the QCM device, media was aspirated and replaced with 3.5% formaldehyde. The cells were fixed for 15 mins at room temperature, washed with PBS and then incubated with rhodamine-labeled phalloidin (0.165 μM in PBS) for 30 mins at room temperature. The cells were then washed with PBS and coverslipped with Cytoseal mounting medium (VWR Scientific). The cells were examined using an Olympus BH2 CTD microscope, and the images were digitized using a CCD camera and imported into Photoshop 5.0 of Adobe® and using a Gateways® P11-390 computer.

[4] = test system: bovine aortic endothelial cells (ECs); assay: Fluorescence light microscopy of actin-stained ECs on the gold QCM crystal surface; format: cell-based; settings: 15 μM (FIG. 8B), four hours treatment
Method: For actin localization in the multichamber wells or in the QCM device, media was aspirated and replaced with 3.5% formaldehyde. The cells were fixed for 15 mins at room temperature, washed with PBS and then incubated with rhodamine-labeled phalloidin (0.165 μM in PBS) for 30 mins at room temperature. The cells were then washed with PBS and coverslipped with Cytoseal mounting medium (VWR Scientific). The cells were examined using an Olympus BH2 CTD microscope, and the images were digitized using a CCD camera and imported into Photoshop 5.0 of Adobe® and using a Gateways® P11-390 computer. Actin localization within cells grown and or treated with nocodazole in the QCM. We wished to examine the ECs directly attached to the QCM surface with and without nocodazole treatment. Since the […] needed to be chemically fixed on the surface, we needed to sacrifice crystals for this purpose. Two different crystals were used. The first crystal was used to visualize ECs growing on the gold QCM surface at the steady state condition. At the conclusion of the QCM measurement, cells on the crystals were stained to localize actin microfilaments. In the first experiment, ECs were added to the crystal and were allowed to attach for 24 hrs to achieve their normal characteristic Δf and ΔR shifts. […]

[5] = 15 μM, ECs beginning to detach from crystal surface
[6] = fluorescence light microscope observations

Row | Molecule | growth stimulation of ECs on the QCM biosensor [1] | initial maximum increase in ΔR after drug addition ([2]; 2.0 μM final concentration, 20,000 ECs added, steady state biosensor) | Δf drop after drug addition ([2]; 2.0 μM final concentration, over the next 4 hours, 20,000 ECs added, steady state biosensor) | Δ(ΔR) value at 15 μM relative to that measured at 6 μM [2, 5] | Δ(Δf) value at 15 μM relative to that measured at 6 μM [2, 5] | EC50 ([2]; as printed in the conclusion, read-out: PC50 (midpoint value of dose effect curve)) | EC50 ([2]; dose curves of Δ(Δf) and Δ(ΔR) vs log concentration, 0.11-6 μM, read-out: PC50 (effective change in cellular attachment in 50% of the ECs, transition midpoint of dose curve)) | EC shape and morphology (actin stain) ([3]; 0.33 μM) | EC shape and morphology (actin stain) ([3]; 1 and 2 μM) | EC shape and morphology (actin stain) ([3]; 6 and 15 μM) | concentration at which changes in EC intercellular contacts and progressive cell rounding begin [3, 6] | concentration by which changes in EC intercellular contacts and cell rounding saturate [3, 6] | EC shape and morphology on QCM crystal (actin stain) [4]
1 | Fibroblast Growth Factor | stimulated the ECs to divide |  |  |  |  |  |  |  |  |  |  |  | 
2 | COC(=O)Nc1nc2ccc(C(=O)c3cccs3)cc2[nH]1 [nocodazole] |  | 14 Ω | 360 Hz | 50% | 50% | 0.9 µM | ~0.9 µM | smaller than control cells | the monolayer became disrupted | significantly reduced cellular area | around 330 nM | ≤ 6 µM | lost cell-cell contact
